Assay results published in ChEMBL document CHEMBL1201862, “PubChem BioAssay data set” (2004).
Activity calls are given as the source filed them.

Tests used:
[1] = target: T1, Corticotropin-releasing factor receptor 2/Corticotropin-releasing factor-binding protein (Homo sapiens, UniProt P24387+Q13324); assay: Dose Response confirmation of uHTS hits for small molecule antagonists of the CRF-binding protein and CRF-R2 receptor complex.; format: functional; conditions: read-out: IC50_Mean
T1 sequence (Q13324 whole entry): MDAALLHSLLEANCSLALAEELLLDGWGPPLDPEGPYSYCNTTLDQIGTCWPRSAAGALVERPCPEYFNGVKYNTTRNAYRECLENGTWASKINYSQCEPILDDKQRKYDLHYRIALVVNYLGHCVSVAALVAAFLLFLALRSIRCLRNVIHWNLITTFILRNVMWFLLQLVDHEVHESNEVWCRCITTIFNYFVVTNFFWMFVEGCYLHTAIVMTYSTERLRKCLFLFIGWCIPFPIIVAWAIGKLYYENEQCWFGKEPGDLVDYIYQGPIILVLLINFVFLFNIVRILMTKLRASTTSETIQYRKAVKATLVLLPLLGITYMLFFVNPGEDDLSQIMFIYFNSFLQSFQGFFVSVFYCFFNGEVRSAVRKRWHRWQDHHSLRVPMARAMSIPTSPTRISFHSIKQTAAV
T1 sequence (P24387 whole entry): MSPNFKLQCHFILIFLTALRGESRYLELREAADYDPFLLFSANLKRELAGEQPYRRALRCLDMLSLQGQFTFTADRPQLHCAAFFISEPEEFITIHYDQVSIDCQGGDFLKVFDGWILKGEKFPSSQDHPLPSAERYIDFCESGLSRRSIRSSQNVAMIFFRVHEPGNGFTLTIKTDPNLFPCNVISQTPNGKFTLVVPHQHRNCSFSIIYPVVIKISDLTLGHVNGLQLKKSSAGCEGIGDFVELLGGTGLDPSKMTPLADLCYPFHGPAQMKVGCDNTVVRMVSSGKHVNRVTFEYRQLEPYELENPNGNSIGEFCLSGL

[2] = target: T1, Corticotropin-releasing factor receptor 2/Corticotropin-releasing factor-binding protein; assay: activators of CRF receptor 2 with binding protein – uHTS hits, confirmation (AID 602473); format: functional; conditions: read-out: EC50_Mean
[3] = system: H4; assay: Luminescence Cell-Based Dose Response HTS to Identify Activators of 5'UTR Stem-Loop Driven Prion Protein mRNA Translation in H4 Neuroglioblastoma Cells. [Related pubchem assays: 1829 (Project Summary), 1814 (Primary HTS)]; format: functional; conditions: Homo sapiens
[4] = target: T2, Cytochrome P450 1A2 (Homo sapiens, UniProt P05177);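 also: PubChem cytochrome P450 panel assay, CYP1A2 panel member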
T2 sequence (P05177 whole entry): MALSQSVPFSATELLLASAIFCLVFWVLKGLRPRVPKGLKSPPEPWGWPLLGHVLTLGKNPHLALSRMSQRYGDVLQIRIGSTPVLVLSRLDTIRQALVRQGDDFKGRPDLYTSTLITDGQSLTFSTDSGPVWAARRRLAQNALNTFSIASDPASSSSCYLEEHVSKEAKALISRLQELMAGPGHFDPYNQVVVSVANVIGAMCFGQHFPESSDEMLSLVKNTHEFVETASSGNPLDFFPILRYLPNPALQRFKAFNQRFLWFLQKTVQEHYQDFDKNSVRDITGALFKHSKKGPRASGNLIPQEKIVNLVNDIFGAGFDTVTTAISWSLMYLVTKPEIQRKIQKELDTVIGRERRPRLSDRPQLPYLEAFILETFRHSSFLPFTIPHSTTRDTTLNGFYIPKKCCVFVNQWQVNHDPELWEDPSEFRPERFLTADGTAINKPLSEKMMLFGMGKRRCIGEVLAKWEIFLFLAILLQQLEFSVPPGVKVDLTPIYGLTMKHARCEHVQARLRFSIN

[5] = target: Cytochrome P450 2C19 (Homo sapiens, UniProt P33261); assay: Cytochrome panel assay with activity outcomes. Panel member name: p450-cyp2c19 Compounds with AC50 equal or less than 10 uM are considered active; format: functional; conditions: read-out: AC50
Cytochrome P450 2C19, sequence (P33261 whole entry): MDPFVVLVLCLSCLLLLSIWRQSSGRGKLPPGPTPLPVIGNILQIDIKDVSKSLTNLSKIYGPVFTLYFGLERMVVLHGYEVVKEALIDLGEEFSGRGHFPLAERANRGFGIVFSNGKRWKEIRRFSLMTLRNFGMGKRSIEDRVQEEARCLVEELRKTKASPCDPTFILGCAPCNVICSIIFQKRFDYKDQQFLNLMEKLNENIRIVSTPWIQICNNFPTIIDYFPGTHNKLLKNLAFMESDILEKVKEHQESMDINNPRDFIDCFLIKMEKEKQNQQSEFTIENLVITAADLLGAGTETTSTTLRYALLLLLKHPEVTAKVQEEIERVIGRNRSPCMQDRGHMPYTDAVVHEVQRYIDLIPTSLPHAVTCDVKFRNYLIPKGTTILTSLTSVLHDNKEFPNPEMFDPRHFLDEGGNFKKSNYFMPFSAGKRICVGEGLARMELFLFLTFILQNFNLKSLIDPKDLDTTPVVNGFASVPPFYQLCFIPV

[6] = target: Cytochrome P450 2C9 (Homo sapiens, UniProt P11712)
Cytochrome P450 2C9, sequence (P11712 whole entry): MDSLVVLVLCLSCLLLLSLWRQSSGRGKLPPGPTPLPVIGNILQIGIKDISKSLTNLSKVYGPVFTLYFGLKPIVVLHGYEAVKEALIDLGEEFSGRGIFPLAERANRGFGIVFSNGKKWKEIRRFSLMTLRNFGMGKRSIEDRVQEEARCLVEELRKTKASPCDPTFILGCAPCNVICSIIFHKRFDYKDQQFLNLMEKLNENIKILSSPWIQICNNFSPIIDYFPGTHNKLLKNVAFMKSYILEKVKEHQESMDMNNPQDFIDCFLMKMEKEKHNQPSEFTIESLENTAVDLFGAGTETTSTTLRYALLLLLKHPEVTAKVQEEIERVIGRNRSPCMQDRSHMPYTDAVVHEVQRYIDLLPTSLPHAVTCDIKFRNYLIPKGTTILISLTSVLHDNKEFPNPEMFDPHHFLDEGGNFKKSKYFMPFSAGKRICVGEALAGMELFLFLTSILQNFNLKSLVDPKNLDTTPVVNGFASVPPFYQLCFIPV

[7] = target: Cytochrome P450 3A4 (Homo sapiens, UniProt P08684);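 also: CYP3A4 tested as one member of a cytochrome P450 panel screen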
Cytochrome P450 3A4, sequence (P08684 whole entry): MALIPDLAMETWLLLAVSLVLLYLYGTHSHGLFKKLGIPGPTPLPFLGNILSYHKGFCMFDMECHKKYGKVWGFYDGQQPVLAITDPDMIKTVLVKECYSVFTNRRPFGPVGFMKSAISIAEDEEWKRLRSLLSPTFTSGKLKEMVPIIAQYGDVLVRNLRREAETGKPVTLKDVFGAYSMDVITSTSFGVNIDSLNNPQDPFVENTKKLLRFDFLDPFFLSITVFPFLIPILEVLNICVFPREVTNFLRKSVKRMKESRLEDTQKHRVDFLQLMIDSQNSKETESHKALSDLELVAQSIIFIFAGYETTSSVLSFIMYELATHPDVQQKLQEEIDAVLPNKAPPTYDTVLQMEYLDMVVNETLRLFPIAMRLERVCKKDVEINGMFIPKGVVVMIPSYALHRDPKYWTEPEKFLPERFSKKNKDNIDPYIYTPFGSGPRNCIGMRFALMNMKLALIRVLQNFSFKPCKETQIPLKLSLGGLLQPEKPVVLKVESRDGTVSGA

[8] = HEp-2 cell cytotoxicity, dose response, cytotoxicity control for RSV inhibitor project, HTS (AID 2410); format: functional; conditions: human respiratory syncytial virus
[9] = target: Paired box protein Pax-8 (Homo sapiens, UniProt Q06710); assay: inhibitors of PAX8-driven TPO luciferase reporter, dose response, RMG-I cells, cherry-pick (AID 687027); format: functional, cell-based;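 also: luciferase reporter driven by Pax8 target thyroperoxidase promoter measured by SteadyGlo luminescence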
Paired box protein Pax-8, sequence (Q06710 whole entry): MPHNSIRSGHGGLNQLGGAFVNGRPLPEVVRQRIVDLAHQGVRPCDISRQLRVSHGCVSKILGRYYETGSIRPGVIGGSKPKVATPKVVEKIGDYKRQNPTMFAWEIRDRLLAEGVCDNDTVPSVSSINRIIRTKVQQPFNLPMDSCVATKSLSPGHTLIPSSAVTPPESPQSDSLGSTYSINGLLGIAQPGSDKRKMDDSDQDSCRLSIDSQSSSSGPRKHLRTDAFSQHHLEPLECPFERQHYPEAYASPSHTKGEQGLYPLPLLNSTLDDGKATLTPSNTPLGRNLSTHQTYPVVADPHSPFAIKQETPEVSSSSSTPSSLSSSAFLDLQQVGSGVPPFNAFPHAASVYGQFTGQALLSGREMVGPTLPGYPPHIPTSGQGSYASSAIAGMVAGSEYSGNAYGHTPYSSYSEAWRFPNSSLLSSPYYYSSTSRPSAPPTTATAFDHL

[10] = system: Streptococcus; assay: Group A Streptococcus viability loss, dose response, counter-screen for streptokinase expression inhibitor project, luminescence, BacTiterGlo (AID 1915); format: functional, organism-based;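 also: potency for reduction of bacterial viability or growth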
[11] = target: T3, Streptokinase A (Streptococcus pyogenes serotype M1, UniProt P10520); assay: S. pyogenes streptokinase expression inhibitors, potency, dose response, plasminogen activation absorbance, OD405 (AID 1914); format: functional, Streptococcus pyogenes M1 GAS;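 also: secreted streptokinase activity via plasminogen activation per viability signal from cell pellet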
T3 sequence (P10520 whole entry): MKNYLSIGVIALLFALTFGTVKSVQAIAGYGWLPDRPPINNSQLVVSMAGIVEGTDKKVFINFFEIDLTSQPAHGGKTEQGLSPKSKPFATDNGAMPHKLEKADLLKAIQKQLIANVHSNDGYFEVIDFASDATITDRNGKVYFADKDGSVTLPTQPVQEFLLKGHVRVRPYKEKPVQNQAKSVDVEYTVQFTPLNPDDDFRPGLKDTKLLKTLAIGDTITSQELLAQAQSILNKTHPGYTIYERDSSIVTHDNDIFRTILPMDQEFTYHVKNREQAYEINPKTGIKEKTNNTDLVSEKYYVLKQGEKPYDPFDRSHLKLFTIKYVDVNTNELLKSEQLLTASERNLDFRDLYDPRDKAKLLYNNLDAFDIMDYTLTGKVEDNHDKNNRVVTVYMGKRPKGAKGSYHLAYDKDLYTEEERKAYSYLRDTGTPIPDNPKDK

[12] = system: Streptococcus sp. 'group A'; assay: growth inhibition of control SK(-) GAS strain, dose response, counter-screen for streptokinase expression inhibitor project, luminescence, kanamycin, BacTiterGlo, confirmation (AID 1900); format: functional, organism-based

CCC(c1nnc(SCC(=O)Nc2c(F)cccc2F)n1Cc1ccccc1)N(C)C (stereo unspecified)
IC50 [1]: > 47.1 µM (inactive)
EC50 [2]: > 53 µM (inactive)

Cc1ccc(CNC(=O)/C=C/c2cccs2)cc1
EC50 [3]: 1.28 µM (active)

CN(C)c1ncc2nc(-c3cc(F)cc(F)c3)c(=O)n(-c3ccccc3)c2n1
AC50 [4]: 0.316 µM (inconclusive)

CCC/C=C(\CCC)C(NS(=O)(=O)c1cccc2cccnc12)c1ccc(-c2ccccc2)cc1 (stereo unspecified)
AC50 [5]: 2.51 µM (inconclusive)
AC50 [4]: 0.794 µM (inconclusive)

COC(=O)N1CCC2(CCN(C(=O)NC(C)C)CC2)CC1
AC50 [6]: 12.6 µM (inconclusive)
AC50 [4]: 20 µM (inconclusive)

COc1ccc(/C=C/C(=O)N(C)CC(=O)Nc2cccc(F)c2)cc1S(=O)(=O)N1CCCCC1
IC50 [1]: > 47.1 µM (inactive)
EC50 [2]: > 53 µM (inactive)

O=c1c2ccccc2c(-c2ccccc2)nn1Cc1ccc(Cl)cc1
AC50 [4]: 0.0708 µM (inconclusive)

CCCC[C@@H]1C[C@H]1C(NC(=O)c1ccccc1)c1ccc(-c2ccccc2)cc1 (stereo partly specified)
AC50 [6]: 2 µM (inconclusive)
AC50 [7]: 7.94 µM (inconclusive)
AC50 [4]: 0.501 µM (inconclusive)

COc1ccccc1NC(=O)Nc1ccc(Cc2ccncc2)cc1
CC50 [8]: 19.1 µM (active)

COCCN1C(=O)C(O)=C(C(=O)c2cccc(OC)c2)C1c1ccc(C)o1 (stereo unspecified)
AC50 [6]: 31.6 µM (inconclusive)
AC50 [4]: 12.6 µM (inconclusive)

CCCCNC(=O)C(Sc1ccccc1)c1ccccc1 (stereo unspecified)
AC50 [9]: 65.4 µM (active)

CC1CCc2[nH]c3ccc(C(=O)N(C)CC(=O)Nc4cccc(F)c4)cc3c2C1 (stereo unspecified)
IC50 [1]: > 47.1 µM (inactive)
EC50 [2]: > 53 µM (inactive)

CC(=O)Nc1ccc(OCC(=O)N2CCC(Cc3ccccc3)CC2)cc1
CC50 [8]: 21.6 µM (active)

O=S(=O)(c1ccccc1)N1CCC2(CCN(c3ccccc3)CC2)CC1
AC50 [5]: 10 µM (inconclusive)
AC50 [6]: 39.8 µM (inconclusive)
AC50 [7]: 2.51 µM (inconclusive)

Cc1ccc2[nH]c(/C(C#N)=C\c3cc(C)n(-c4cccc([N+](=O)[O-])c4)c3C)nc2c1
CC50 [8]: 16.6 µM (active)

CC1CN(S(=O)(=O)c2cccc(C(=O)Nc3cc(Cl)ccc3N3CCOCC3)c2)CC(C)O1 (stereo unspecified)
CC50 [8]: 43 µM (active)

COc1ccc(CNc2cc([N+](=O)[O-])ccc2OC)cc1
IC50 [1]: 11 µM (active)
EC50 [2]: > 53 µM (inactive)

CC(/C=C/c1ccccc1)=N\NC(=O)C1CC1(C)c1ccccc1 (stereo unspecified)
CC50 [8]: 32 µM (active)

O=C(Nc1ccc(F)cc1F)c1cccnc1Oc1cccc(C(F)(F)F)c1
AC50 [4]: 0.794 µM (inconclusive)

Cc1cc(NC(=O)c2cc(C(C)C)on2)no1
AC50 [4]: 20 µM (inconclusive)

Cc1cc(Br)cc2c1N(C)C(=O)C2(c1ccc(O)cc1)c1ccc(O)cc1
CC50 [8]: 13.8 µM (active)

CCC(=O)Nc1c2c(nc3c1CCC3)CCCC2
AC50 [4]: 15.8 µM (inconclusive)

COc1ccccc1C(=O)Nc1nnc(SCC(=O)NCC2CCCO2)s1 (stereo unspecified)
EC50 [10]: > 150 µM (not active)
EC50 [3]: > 120 µM (not active)
EC50 [11]: > 150 µM (not active)
EC50 [12]: > 150 µM (not active)

COc1cc(NC(S)=NCc2ccco2)cc(OC)c1
IC50 [1]: > 47.1 µM (inactive)
EC50 [2]: > 53 µM (inactive)

COc1cccc(-c2ccc3c(c2)[C@@H]2[C@@H](CCN2S(=O)(=O)c2ccccc2C)[C@H](CO)N3C)c1
AC50 [9]: 10.4 µM (active)

Cc1nc2cnc(Nc3ccccc3)nc2n(CCc2ccccc2)c1=O
AC50 [7]: 10 µM (inconclusive)
AC50 [4]: 2.51 µM (inconclusive)

Cn1cc(-c2nc3cnc(Oc4ccccc4)nc3n(C3CC3)c2=O)c2ccccc21
AC50 [7]: 25.1 µM (inconclusive)
AC50 [4]: 5.01 µM (inconclusive)

OC(COc1ccc(Cl)c2ccccc12)CN1CCN(c2ccccn2)CC1 (stereo unspecified)
CC50 [8]: 18.3 µM (active)

Cc1ccc(NC2c3ncccc3C(=O)N2Cc2ccc(F)cc2)cc1 (stereo unspecified)
CC50 [8]: > 50 µM (active)

COc1cc(C=O)ccc1Oc1cnccn1
IC50 [1]: > 47.1 µM (inactive)
EC50 [2]: > 53 µM (inactive)

CCCc1cc2c(n1Cc1cccc(Cl)c1)C(C)C1CN(C(=O)c3ccccc3)C(C)(C(=O)OC)C21 (stereo unspecified)
AC50 [4]: 31.6 µM (inconclusive)

CCn1c2ccccc2c2cc(NC(=O)C(C)Oc3ccc(OC)cc3)ccc21 (stereo unspecified)
CC50 [8]: > 50 µM (active)
AC50 [6]: 7.94 µM (inconclusive)

CCCCCC(=O)N1CC2(CC(c3cccc(NC(=O)CC)c3)=NO2)C[C@H]1C(N)=O (stereo partly specified)
IC50 [1]: > 47.1 µM (inactive)
EC50 [2]: > 53 µM (inactive)

Cc1ccc(Cn2c(C(C)Nc3nc(-c4ccc(F)cc4)cs3)nc3cc(Cl)c(Cl)cc32)cc1 (stereo unspecified)
CC50 [8]: 49.3 µM (active)

CC(NC(=O)Nc1ccc(Cl)cc1)c1ccc2c(c1)OCO2 (stereo unspecified)
CC50 [8]: 39.5 µM (active)

Cc1cc([N+](=O)[O-])ccc1NCc1ccccc1[N+](=O)[O-]
IC50 [1]: > 47.1 µM (inactive)
EC50 [2]: > 53 µM (inactive)

Cc1cn(CC(=O)N2CCN(c3ccccn3)CC2)c(=O)[nH]c1=O
IC50 [1]: > 47.1 µM (inactive)
EC50 [2]: > 53 µM (inactive)

CC(C)(C)c1nc(SCC(=O)Nc2ccc(N3CCOCC3)cc2)c2ccccc2n1
AC50 [7]: 1 µM (inconclusive)

CC(C)NC(=O)N1CC2(CCN(C(=O)c3ccncc3)CC2)C1
AC50 [7]: 0.0794 µM (inconclusive)

COc1ccc2nc(NC(C)=O)sc2c1
AC50 [5]: 39.8 µM (inconclusive)
AC50 [7]: 28.2 µM (inconclusive)

Cc1ccc(NC(=O)C2CCCN2C(=O)c2cccs2)cc1C (stereo unspecified)
IC50 [1]: > 47.1 µM (inactive)
EC50 [2]: > 53 µM (inactive)

CCOC(=O)n1ccn(C)c1=S [CARBIMAZOLE]
AC50 [4]: 12.6 µM (inconclusive)
